Measured values reported in PubChem BioAssay AID651969 (The Scripps Research Institute Molecular Screening Center, 2013).
The source made the active and inactive calls. How the calls were made is not given here.

System: StAR promoter luciferase reporter cells, luminescence counterscreen
Test: nonselective StAR promoter luciferase inhibitors – cell-based, luminescence, luciferase reporter, counter-screen for LRH-1 inverse agonist project, dose response (AID 651969)

## COc1ccc(NC(=O)COC(=O)c2cc(S(=O)(=O)N3CCCC3)ccc2O)cc1
  IC50: > 35.9 µM (inactive)
